Entries after “also recorded” stand apart in the source; their conditions may differ. Where two headings read alike, the source gives them in different places.
Experiments:
[1] = test system: B. subtilis ATCC 6051; assay: 55Fe-siderophore transport assay; assay type: cell-based; details: 37 °C, iron-limited medium
[2] = target: substrate-binding protein FeuA (Bacillus subtilis, UniProt P40409); assay: Fluorescence quenching binding assay with FeuA-His6; design: species or system B. subtilis 168
[3] = test system: esterase BesA; assay: BesA-catalyzed hydrolysis of ferric complexes followed by UV-Vis spectroscopy; assay type: biochemical, B. cereus ATCC 14579; details: 100 μM substrate, 1 μM enzyme, 75 mM HEPES pH 7.5, UV-Vis over 12 h
[4] = test system: E. coli; details: incorporated through FepA; cited from earlier work
[5] = test system: esterase Fes; details: cited from earlier work
[6] = test system: esterase Fes; assay: Fes-catalyzed hydrolysis of siderophores; assay type: biochemical; details: Fes from Shigella flexneri, 64 μM substrates, 72 nM enzymes, HPLC
[7] = test system: esterase BesA; assay: BesA-catalyzed hydrolysis of apo siderophores followed by HPLC; assay type: biochemical, B. cereus ATCC 14579; details: 72 nM enzyme, 64 μM siderophore
[8] = test system: B. subtilis HB5600 (dhbA∷spc); assay: Disc diffusion growth promotion assay, HB5600; assay type: cell-based; details: in the presence of 2,2′-dipyridyl
[9] = test system: B. subtilis HB5625 (feuA∷spc dhbA∷mls); assay: Disc diffusion growth promotion assay, HB5625; assay type: cell-based; details: in the presence of 2,2′-dipyridyl
[10] = cited from earlier work; for log K3: [LH2]^4-; for log K4: [LH3]^3-; for log K5: [LH4]^2-; for log K6: [LH5]^-; for log K2: [LH]^5-; for log K1: [L]^6-; for Σlog K1-6: sum of the stepwise protonation constants
[11] = cited from earlier work; for log β110: [FeL]^3-; for pM(Fe^III): pH 7.4, 1 μM total iron, 10 μM total ligand
[12] = Strong acid hydrolysis followed by HPLC; assay type: physicochemical; details: 1 mg/mL, 6 M HCl, stirred 12 h (overnight)
[13] = Potentiometric titration, ligand protonation constants; assay type: physicochemical
[14] = assay type: physicochemical
[15] = test system: B. subtilis ATCC 6051; details: cited from earlier work

Sequence of substrate-binding protein FeuA (P40409 21-317): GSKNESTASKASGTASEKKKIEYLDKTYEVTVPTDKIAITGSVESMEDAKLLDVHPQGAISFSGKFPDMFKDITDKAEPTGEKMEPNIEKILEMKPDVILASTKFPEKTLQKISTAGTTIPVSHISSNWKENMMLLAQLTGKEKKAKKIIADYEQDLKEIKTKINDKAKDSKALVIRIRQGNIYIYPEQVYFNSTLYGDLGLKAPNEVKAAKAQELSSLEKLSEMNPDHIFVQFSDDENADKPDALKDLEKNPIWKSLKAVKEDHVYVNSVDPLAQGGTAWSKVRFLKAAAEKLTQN

O=C(CNC(=O)c1cccc([O-])c1[O-])N[C@H]1COC(=O)[C@@H](NC(=O)CNC(=O)c2cccc([O-])c2[O-])COC(=O)[C@@H](NC(=O)CNC(=O)c2cccc([O-])c2[O-])COC1=O.[Fe+3] [[Fe^III(SGC)]^3-]
iron transport into B. subtilis [1]: transported into B. subtilis at levels similar to that of [Fe^III(BB)]^3-
Kd [2]: 52 nM
reaction of the ferric complex with BesA [3]: the UV-Vis spectra changed

C[C@H]1OC(=O)[C@@H](NC(=O)CNC(=O)c2cccc([O-])c2[O-])[C@@H](C)OC(=O)[C@@H](NC(=O)CNC(=O)c2cccc([O-])c2[O-])[C@@H](C)OC(=O)[C@H]1NC(=O)CNC(=O)c1cccc([O-])c1[O-].[Fe+3] [[Fe^III(BB)]^3-]
Kd [2]: 15 nM
reaction of the ferric complex with BesA [3]: the UV-Vis spectra changed

O=C(N[C@@H]1COC(=O)[C@H](NC(=O)c2cccc([O-])c2[O-])COC(=O)[C@H](NC(=O)c2cccc([O-])c2[O-])COC1=O)c1cccc([O-])c1[O-].[Fe+3] [[Fe^III(D-Ent)]^3-]
growth promotion of E. coli [4]: does not promote growth
hydrolysis by Fes [5]: neither apo-D-Ent nor [Fe^III(D-Ent)]^3- are hydrolyzed by Fes
Kd [2]: 10 nM
reaction of the ferric complex with BesA [3]: No change in the absorption spectra

O=C(CNC(=O)c1cccc(O)c1O)N[C@@H]1COC(=O)[C@H](NC(=O)CNC(=O)c2cccc(O)c2O)COC(=O)[C@H](NC(=O)CNC(=O)c2cccc(O)c2O)COC1=O [D-SGC, N,N′,N″-Tris[2,3-dihydroxybenzoyl-glycinyl]cyclotri-D-seryl trilactone]
hydrolysis by Fes [6]: did not react
hydrolysis of the apo siderophore by BesA [7]: no effect; also recorded: did not affect
growth promotion of B. subtilis HB5600 (in words) [8]: no significant zone of growth stimulation

C[C@H]1OC(=O)[C@@H](NC(=O)CNC(=O)c2cccc(O)c2O)[C@@H](C)OC(=O)[C@@H](NC(=O)CNC(=O)c2cccc(O)c2O)[C@@H](C)OC(=O)[C@H]1NC(=O)CNC(=O)c1cccc(O)c1O [BB, bacillibactin]
growth stimulation of B. subtilis HB5625, feuA deleted (in words) [9]: prevented growth stimulation
hydrolysis by Fes [6]: did not react
log K3 [10]: 12.1
log K4 [10]: 8.43
log K5 [10]: 7.43
log K6 [10]: 6.77
log K2 [10]: 12.1
log K1 [10]: 12.1
Σlog K1-6 [10]: 58.93
hydrolysis of the apo siderophore by BesA [7]: hydrolyzed sequentially
log β110 [11]: 47.6
pM(Fe^III) [11]: 33.1
growth promotion of B. subtilis HB5600 (in words) [8]: promoted growth
resistance to acid hydrolysis [12]: remained essentially intact

O=C(CNC(=O)c1cccc(O)c1O)N[C@H]1COC(=O)[C@@H](NC(=O)CNC(=O)c2cccc(O)c2O)COC(=O)[C@@H](NC(=O)CNC(=O)c2cccc(O)c2O)COC1=O [SGC, SERglyCAM]
growth stimulation of B. subtilis HB5625, feuA deleted (in words) [9]: prevented growth stimulation
log K4 ([13]; [LH3]^3-, 0.1 M KCl, 25 °C): 8.37(3)
log K5 ([13]; [LH4]^2-, 0.1 M KCl, 25 °C): 7.54(2)
log K6 ([13]; [LH5]^-, 0.1 M KCl, 25 °C): 6.68(3)
Σlog K1-6 ([13]; sum of the stepwise protonation constants): 58.89
log β110 ([14]; [FeL]^3-, competition with EDTA, 0.1 M KCl, 25 °C, pH 5 to 7.5): 44.1(2)
pM(Fe^III) ([14]; pH 7.4, 1 μM total iron, 10 μM total ligand): 29.6
hydrolysis of the apo siderophore by BesA [7]: hydrolyzed sequentially
growth promotion of B. subtilis HB5600 (in words) [8]: promoted growth

O=C(N[C@@H]1COC(=O)[C@H](NC(=O)c2cccc(O)c2O)COC(=O)[C@H](NC(=O)c2cccc(O)c2O)COC1=O)c1cccc(O)c1O (single isomer, unassigned; ent d) [D-Ent, D-enterobactin]
hydrolysis by Fes [5]: neither apo-D-Ent nor [Fe^III(D-Ent)]^3- are hydrolyzed by Fes
hydrolysis of the apo siderophore by BesA [7]: no effect; also recorded: did not affect
growth promotion of B. subtilis HB5600 (in words) [8]: no significant zone of growth stimulation
transport properties in B. subtilis [15]: same transport properties as Ent

O=C(N[C@H]1COC(=O)[C@@H](NC(=O)c2cccc(O)c2O)COC(=O)[C@@H](NC(=O)c2cccc(O)c2O)COC1=O)c1cccc(O)c1O [Ent, Enterobactin]
growth stimulation of B. subtilis HB5625, feuA deleted (in words) [9]: prevented growth stimulation
hydrolysis by Fes [5]: subject to enzymatic sequential hydrolysis
log K3 [10]: 12.1
log K4 [10]: 8.6
log K5 [10]: 7.5
log K6 [10]: 6.0
log K2 [10]: 12.1
log K1 [10]: 12.1
Σlog K1-6 [10]: 58.4
hydrolysis of the apo siderophore by BesA [7]: hydrolyzed sequentially
log β110 [11]: 49
pM(Fe^III) [11]: 34.3
growth promotion of B. subtilis HB5600 (in words) [8]: promoted growth
resistance to acid hydrolysis [12]: completely degraded

O=C(N[C@H]1COC(=O)[C@@H](NC(=O)c2cccc([O-])c2[O-])COC(=O)[C@@H](NC(=O)c2cccc([O-])c2[O-])COC1=O)c1cccc([O-])c1[O-].[Fe+3] [[Fe^III(Ent)]^3-]
hydrolysis by Fes [5]: subject to enzymatic sequential hydrolysis
Kd [2]: 19 nM
reaction of the ferric complex with BesA [3]: the UV-Vis spectra changed
